Assay results taken from publication PMC5639602, “Role of microglial amylin receptors in mediating beta amyloid (Aβ)-induced inflammation” (Journal of Neuroinflammation, 2017).
“Also recorded” adds a separate entry of the source. Ends that are not written are not given here.

Columns and labels:
[1] = test system: caspase-1 in HFM; assay: Caspase-1 expression, fluorometric assay, human fetal microglia; type: cell-based
Procedure: (§1) Two different types of microglial, primary cultures of human fetal microglia and mouse microglial BV2 cell line, were used for in vitro testing of amylin receptor function. This approach provided confirmation of the presence of microglial amylin receptors across species and cross-validated our observations on the function of amylin receptors in both primary cell cultures and a frequently used cell line. Primary mixed glial cultures were prepared from 12- to 15-gestational-week fetuses as previously reported. Briefly, the meninges and blood vessels were removed and the brain tissue was washed in minimum essential medium and mechanically dissociated by repeated trituration through a 20-gauge needle. Cells were centrifuged at 1500g for 10 min and re-suspended in minimum essential medium with 10% fetal bovine serum. The cultures were grown in a 5% CO2 humidified incubator at 37 °C. […]
(§2) For cultured cell immunofluorescent staining, cells were plated on Lab-TEK chamber slide (ThermoFisher) and fixed with 4% paraformaldehyde (PAF) in PBS, then permeabilized with 0.3% Triton X-100 in PBS and blocked with 2% BSA + 10% goat serum for 1 h. […] Fluorescent microscopy images were acquired with an Axioplan-2 fluorescence microscope with AxioVision software (Carl Zeiss Ltd., Toronto, ON, Canada).

[2] = test system: cytokine gene expression in HFM; assay: Cytokine RT-PCR array in human fetal microglia; type: cell-based; details: 1 μM, 6 h, vs untreated
Procedure: The PCR array for TNFα, IL1β, and IL23 gene expression used the RT^2 Profiler PCR Array system (96-well assay plate, SABiosciences) following product instruction. […] RNA was isolated with Rneasy Mini kit (Qiagen) as per the product instructions. For each PCR Array, 4 μg of total RNA were used to prepare cDNA with the appropriate first strand kit from SABiosciences. The cDNA was characterized on the iCycler® iQ Real-Time PCR System (Bio-Rad Laboratories) using the RT2 Profiler PCR Arrays. The resulting raw data were then analyzed using the PCR Array Data Analysis Template and expressed as gene expression fold-change after treatment compared to the control untreated HFM cultures.

[3] = test system: caspase-1 in BV2 cells; assay: Caspase-1 expression in BV2 cells; type: cell-based, mouse
Procedure: as §1, §2

[4] = test system: AMY3 receptor subtype; details: ref [23]; cited from earlier work
Text: (§3) As a neuroendocrine hormone, amylin mediates glycemic regulation, energy balance control, and cognitive/motivational processes. Human amylin also modulates autoimmunity and innate inflammation through regulatory T cells. Amyloid precursor protein (APP) and Aβ interact with variety of G-protein-coupled receptors (GPCRs) including amylin receptors. Amylin receptors (AMYs) are a dimerized calcitonin receptor (CTR) with receptor activity-modifying proteins (RAMPs) and belong to class B GPCRs. We have previously shown that hAmylin and Aβ preferentially activate AMY3 recep ...

[5] = test system: hippocampal long-term potentiation; details: ref [20], [39]; cited from earlier work
Text: as §3

[6] = test system: BV2 cells; assay: Aβ uptake and plaque-like structure formation in BV2 cells (thioflavin S); type: cell-based, mouse; details: BV2, 1 μM, 24 h, thioflavin S staining
Procedure: as §1, §2

[7] = test system: human fetal microglia (HFM); amylin receptor; assay: Intracellular Ca2+ imaging (Fluo-8L-AM, confocal) in human fetal microglia; type: cell-based; details: 1 μM
Procedure: Two different types of microglial, primary cultures of human fetal microglia and mouse microglial BV2 cell line, were used for in vitro testing of amylin receptor function. […] Primary mixed glial cultures were prepared from 12- to 15-gestational-week fetuses as previously reported [21, 22]. Briefly, the meninges and blood vessels were removed and the brain tissue was washed in minimum essential medium and mechanically dissociated by repeated trituration through a 20-gauge needle. Cells were centrifuged at 1500g for 10 min and re-suspended in minimum essential medium with 10% fetal bovine serum. The cultures were grown in a 5% CO2 humidified incubator at 37 °C. After mixed glial cultures were completely confluent, human fetal microglia (HFM) were isolated by shaking flasks at 100 rpm (IKA KS-260, IKA Works, Wilmington, NC) for 1 h at 37 °C. The media was then collected and centrifuged at 2500 RCF for 5 min at 4 °C. Cell pellets were re-suspended in microglia plating media (MEM + 10% FBS + 1% penicillin/streptomycin). HFM were plated at a 2 × 10^5 cells per milliliter density, and microglia were allowed to attach overnight before further use for experiments. […] For all in vitro experiments, primary human fetal microglial cultures and BV2 cell cultures, each experiment was performed on a fresh batch of cell cultures and repeated a minimum of four times. Statistical analysis was performed on mean data.
Ca^2+ concentration were monitored with confocal microscopy as described previously [23, 24]. Briefly, HFMs were plated on glass coverslips pre-coated with poly-L-ornithine and incubated at 37 °C for 12–36 h. Then, incubated with 5 μM of membrane-permeant fluorescent Ca^2+-sensitive dye Fluo-8L-AM (AAT Bioquest, Inc., Sunnyvale, CA) for 40 min at room temperature (20–23 °C) within < 2 h before imaging. For Ca^2+ imaging, the superfusate of ion content similar to extracellular brain fluid thus contain the following: 130 mM NaCl, 4 mM KCl, 1 mM MgCl2, 2 mM CaCl2, 10 mM HEPES, and 10 mM glucose (pH 7.35) was applied at a rate of 3 ml/min using a roller pump (Watson-Marlow Alitea, Sin-Can, Calgary, AB, Canada). […] Fluorescence intensity was monitored with a FV-300 laser-scanning confocal microscope (Olympus FV300, Markham, Ontario, Canada) equipped with an argon laser (488 nm) and excitation/emission filters (FF02-520/28-25; Semrock, Inc.) for an emission wavelength at 514 nm, measured with a numerical aperture of 0.95 20× XLUMPlanF1 objective (Olympus). Images were acquired at scan rates of 1.25–1.43 per second using a 2–3× digital zoom at full-frame (512 × 512 pixel) resolution. Regions of interest were drawn around distinct cell bodies, and analysis of time courses of change in fluorescence intensity were generated with FluoView software (version 4.3; Olympus). […]

[8] = test system: NLRP3 in human fetal microglial (HFM) cultures; assay: NLRP3 immunostaining in human fetal microglia; type: cell-based; details: vs basal
Procedure: Two different types of microglial, primary cultures of human fetal microglia and mouse microglial BV2 cell line, were used for in vitro testing of amylin receptor function. This approach provided confirmation of the presence of microglial amylin receptors across species and cross-validated our observations on the function of amylin receptors in both primary cell cultures and a frequently used cell line. Primary mixed glial cultures were prepared from 12- to 15-gestational-week fetuses as previously reported. Briefly, the meninges and blood vessels were removed and the brain tissue was washed in minimum essential medium and mechanically dissociated by repeated trituration through a 20-gauge needle. Cells were centrifuged at 1500g for 10 min and re-suspended in minimum essential medium with 10% fetal bovine serum. The cultures were grown in a 5% CO2 humidified incubator at 37 °C. After mixed glial cultures were completely confluent, human fetal microglia (HFM) were isolated by shaking flasks at 100 rpm (IKA KS-260, IKA Works, Wilmington, NC) for 1 h at 37 °C. The media was then collected and centrifuged at 2500 RCF for 5 min at 4 °C. Cell pellets were re-suspended in microglia plating media (MEM + 10% FBS + 1% penicillin/streptomycin). HFM were plated at a 2 × 10^5 cells per milliliter density, and microglia were allowed to attach overnight before further use for experiments. BV2 cells (kindly provided by Dr. T. Trang, University of Calgary) were cultured in DMEM/F12 media with 10% FBS. For all in vitro experiments, primary human fetal microglial cultures and BV2 cell cultures, each experiment was performed on a fresh batch of cell cultures and repeated a minimum of four times. […]
as §2

[9] = test system: transgenic AD mice; details: systemic administration, ref [40], [41]; cited from earlier work
Text: as §3

[10] = test system: AMY1; assay: cAMP in-cell Western, AMY1-expressing HEK293 cells; type: cell-based; details: 5 min
Text: (§4) In order to characterize the antagonist activity of cAC253 at subtypes of amylin receptors, we compared hAmylin-generated cAMP responses in stably expressed AMY1, AMY2, and AMY3 and CTR receptors in HEK293 cells and wild-type HEK (HEK-WT) cells (Additional file 1).
(§5) For in-cell Western blot cyclic adenosine monophosphate (cAMP) quantification, mouse monoclonal anti-cAMP (R&D Systems) was used as a primary antibody and IRDye 700 goat anti mouse antibody (LI-COR) was used as a secondary antibody. Plates were imaged using an Odyssey Infrared Imaging System (LI-COR), and the integrated intensity was normalized to the total cell number on the same well as previously described.
(§6) Amylin receptor subtypes stably expressed in human embryonic kidney (HEK293) cell-line were generated and characterized as described in a previous published article from our laboratory ( Fu et al., J. Biol. Chem. 2012). […]
(§7) The in-cell Western blot cyclic adenosinemonophosphate (cAMP) quantification was used as previously described (Fu et al., J Biol Chem. 2012). […] The cAMP was measured at 5 min after treatment, i.e., at 5 min after different concentration of hAmylin and/or cAC253 treatment, cells were fixed with 4% paraformaldehyde in PBS for 10 min. […] Plates were imaged using an Odyssey Infrared Imaging System (LI-COR), and the integrated intensity was measured. […]

[11] = test system: AMY2; assay: cAMP in-cell Western, AMY2-expressing HEK293 cells; type: cell-based; details: 5 min
Text: as §4, §5, §6, §7

[12] = test system: HEK wild-type control cells; assay: cAMP in-cell Western, wild-type HEK cells; type: cell-based, human; details: 5 min
Text: as §4, §5
The in-cell Western blot cyclic adenosinemonophosphate (cAMP) quantification was used as previously described (Fu et al., J Biol Chem. 2012). Briefly, amylin receptor stable cells were plated at a density of 4x10^4 cells/well in a 96-well plate and cultured for 24 hours. On the day of experiment, culture media was replaced with serum free DMEM medium and further incubate for 6 h before treatment. The cAMP was measured at 5 min after treatment, i.e., at 5 min after different concentration of hAmylin and/or cAC253 treatment, cells were fixed with 4% paraformaldehyde in PBS for 10 min. […] Plates were imaged using an Odyssey Infrared Imaging System (LI-COR), and the integrated intensity was measured. […]

[13] = test system: CTR; assay: cAMP in-cell Western, CTR-expressing HEK293 cells; type: cell-based; details: 5 min
Text: as §4, §5, §6, §7

[14] = test system: AMY3; assay: cAMP in-cell Western, AMY3-expressing HEK293 cells; type: cell-based; details: 5 min
Text: as §4, §5, §6, §7

| Substance | Caspase-1 expression [1] | IL1β gene expression [2] | TNFα gene expression [2] | Caspase-1 expression [3] | Activation of AMY3 receptor subtype with downstream MAPK and Akt signaling [4] | Effect on hippocampal long-term potentiation [5] | Uptake of Aβ1–42 and formation of plaque-like structures [6] | Time to Ca2+ increase after entry of the peptide into the imaging chamber ([7]; 30 s application) [min] | NLRP3 level [8] | NLRP3 level ([8]; listed as Aβ) | Effect on hAmylin- and Aβ-induced depression of hippocampal long-term potentiation [5] | Amyloid burden in the brain [9] | Efflux of Aβ across the blood brain barrier [9] | Receptor activation (cAMP) [10] | Receptor activation (cAMP) [11] | cAMP response [12] | Receptor activation (cAMP) [13] | Receptor activation (cAMP) [14] | Time of return of Ca2+ to base line ([7]; 30 s application) [min] | Intracellular Ca2+ change ([7]; bath application 30 s, Fluo-8, pooled n = 123 HFM in 12 culture wells, four batches) |
| --- | --- | --- | --- | --- | --- | --- | --- | --- | --- | --- | --- | --- | --- | --- | --- | --- | --- | --- | --- | --- |
| Aβ1–42: soluble oligomeric amyloid beta 1–42 peptide from rPeptide | increased | increases | increases | increased | preferentially activate AMY3 receptor subtype | depression of hippocampal long-term potentiation | uptake of the peptide into the microglia and formation of plaque-like structures on the cell surface; also recorded: taken up into the cells and formed plaque-like structures | ≤ 1 | Increased activation of the inflammasome, NLRP3 | increased significantly | – | – | – | – | – | – | – | – | – | – |
| pramlintide | – | – | – | – | – | – | – | – | – | – | attenuate | reduce amyloid burden in the brain | promoting an efflux of Aβ across the blood brain barrier | – | – | – | – | – | – | – |
| hAmylin: human amylin, the endogenous peptide that binds to the amylin receptor; purchased from American Peptide (KCNTATCATQRLANFLVHSSNNFGAILSSTNVGSNTY; not fully specified (C-terminus, bridges); cysteine pairing not given here; UniProt P10997 34-70, looked up) | increased | increases | increases | increased | preferentially activate AMY3 receptor subtype | depression of hippocampal long-term potentiation | – | ≤ 1 | increased significantly; also recorded: Increased activation of the inflammasome, NLRP3 | – | – | – | – | activated | not significantly | not significantly | not significantly | activated | ≤ 2 | robust Ca^2+ increase |
